Measured values published in article PMC9921896 (Molecules, 2023).

Tests used:
Assay in all cases: Single concentration Kobs assay (time-dependent inhibition) in HLM
Assay type in all cases: biochemical
[1] = target: T1, CYP2B6 (Homo sapiens, UniProt P20813); settings: for Kobs 2B6: HLM, single concentration, 0.02 min^−1 indicates TD inhibition potential; for Single concentration Kobs assay (risk bin) 2B6: TD inhibition class from Kobs vs 0.02 min^−1 (Table 5 traffic lights)
T1 construct: Using HLM as the enzyme source; from tissue; host or cells: human liver microsomes
T1 sequence (P20813 1-491): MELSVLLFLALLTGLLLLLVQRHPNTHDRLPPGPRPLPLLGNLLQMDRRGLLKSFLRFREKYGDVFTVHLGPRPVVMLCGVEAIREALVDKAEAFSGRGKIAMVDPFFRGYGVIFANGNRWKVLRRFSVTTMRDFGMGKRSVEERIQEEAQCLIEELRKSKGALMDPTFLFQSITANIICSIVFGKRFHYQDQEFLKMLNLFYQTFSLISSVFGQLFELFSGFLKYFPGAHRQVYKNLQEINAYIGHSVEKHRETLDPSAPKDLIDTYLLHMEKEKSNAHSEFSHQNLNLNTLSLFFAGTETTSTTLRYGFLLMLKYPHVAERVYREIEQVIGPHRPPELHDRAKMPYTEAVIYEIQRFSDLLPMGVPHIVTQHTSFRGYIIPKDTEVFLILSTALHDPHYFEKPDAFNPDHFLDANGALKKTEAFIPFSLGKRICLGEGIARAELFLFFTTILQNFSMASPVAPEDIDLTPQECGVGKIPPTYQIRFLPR
From the text: (§1) CYP inhibition evaluation is typically performed by either IC50 at single-point or IC50 Shift or abbreviated assay such as the first-order inactivity rate constant (K obs ) at single concentration.
(§2) This method yielded good correlations between the percent inhibition at 10 or 25 μ M and kinact/KI. Evaluation of TD inhibition at single concentration has been implemented in several drug discovery programs. […] Therefore, in this study, a single K obs approach has been utilized to understand the TD inhibition potential of TbB ligands. Ideally, the inhibition of CYPs can be reversible or irreversible. The data obtained from single-concentration K obs studies were analyzed to understand the same. From the data presented in Table 4, the TbB ligands have values less than 50% for reversible inhibition (R_Inh). As the qualified % reversible inhibition is considered significant if >50%, no significant reversible inhibition is observed for TbB ligands. Knowledge about enzyme inactivation half-life (E½) is also equally important as it would provide insight into the TD inhibition of a compound. E½ can be used to bin the compounds as positive or negative TD inhibitors if the values are <28 or >28, respectively. The TbB ligand 223-2 is observed to be a weak positive TD inhibitor of 1A2 and is negative TD inhibitor to the other six CYP isoforms.
(§3) The time-dependent inhibition (TDI) potential of test compounds against CYP1A2, 2B6, 2C8, 2C9, 2C19, 2D6, 3A4/5 isoforms were determined using Human liver microsomes. Assay is performed in 96-deep well plate format (n = 1). Positive controls and DMSO as negative control in each assay. To obtain 100 μ M working stock solution, 1 μ L of blank DMSO/test/reference compounds to 100 μ L 1× DPBS buffer was added and labeled as dilution plate. To the primary incubation plate, 45 μ L of primary mix was dispensed to the desired wells containing 25 μ L HLM, 10 μ L MgCl2, and 10 μ L of NADPH working solutions. To the secondary incubation plate, 95 μ L of secondary mix was dispensed to the desired wells containing 20 μ L MgCl2, 20 μ L NADPH, 10 μ L respective substrates for CYP isoform working solutions and 45 μ L 1× DPBS buffer. Each of these four plates were labeled with their respective time points, i.e., 0, 6, 16, 32 min. Pre-incubated the dilution plate along with primary incubation plate at 37 °C for 15 min at 450 rpm. The reaction was carried out in triplicate. After the incubation, the reaction was quenched by adding 150 μ L ice cold stop solution to all the wells followed by centrifuging the samples at 4000 rpm, 4 °C for 15 min. The supernatant samples were then transferred into vials for LC-MS/MS analysis. The percent Reversible Inhibition was calculated using the following formula. %Reversibleinhibition=100−(PARtestcompt0×100)/(PARaverageDMSOt0)

[2] = target: T2, CYP2C8 (Homo sapiens, UniProt P10632); settings: for Kobs 2C8: HLM, 0.02 min^−1 indicates TD inhibition potential; for Kobs 2C8 / inhibition at 30 min: single concentration; for Single concentration Kobs assay (risk bin) 2C8: TD inhibition class from Kobs vs 0.02 min^−1 (Table 5 traffic lights); for inhibition at 30 min: human, human liver microsomes, significant if >50%, read-out: 2C8 R_Inh% (reversible inhibition)
T2 construct: Using HLM as the enzyme source; from tissue; host or cells: human liver microsomes
T2 sequence (P10632 1-490): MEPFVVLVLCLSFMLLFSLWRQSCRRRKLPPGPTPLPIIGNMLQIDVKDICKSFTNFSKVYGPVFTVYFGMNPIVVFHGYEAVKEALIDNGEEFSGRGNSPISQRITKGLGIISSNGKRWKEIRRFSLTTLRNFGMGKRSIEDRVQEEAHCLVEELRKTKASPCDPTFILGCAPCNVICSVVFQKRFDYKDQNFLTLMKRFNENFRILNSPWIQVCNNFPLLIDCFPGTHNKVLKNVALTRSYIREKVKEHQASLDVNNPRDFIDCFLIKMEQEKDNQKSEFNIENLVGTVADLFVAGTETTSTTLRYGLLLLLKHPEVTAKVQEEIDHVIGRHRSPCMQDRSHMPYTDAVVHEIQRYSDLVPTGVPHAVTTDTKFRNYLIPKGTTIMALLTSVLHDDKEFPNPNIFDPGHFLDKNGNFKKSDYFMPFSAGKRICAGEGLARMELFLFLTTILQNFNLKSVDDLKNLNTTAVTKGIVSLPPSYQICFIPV
From the text: as §1, §2, §3

[3] = target: T3, CYP2D6 (Homo sapiens, UniProt P10635); settings: for Kobs 2D6: HLM, 0.02 min^−1 indicates TD inhibition potential; for Kobs 2D6 / inhibition at 30 min: single concentration; for Single concentration Kobs assay (risk bin) 2D6: TD inhibition class from Kobs vs 0.02 min^−1 (Table 5 traffic lights); for inhibition at 30 min: human, human liver microsomes, significant if >50%, read-out: 2D6 R_Inh% (reversible inhibition)
T3 construct: Using HLM as the enzyme source; from tissue; host or cells: human liver microsomes
T3 sequence (P10635 whole entry): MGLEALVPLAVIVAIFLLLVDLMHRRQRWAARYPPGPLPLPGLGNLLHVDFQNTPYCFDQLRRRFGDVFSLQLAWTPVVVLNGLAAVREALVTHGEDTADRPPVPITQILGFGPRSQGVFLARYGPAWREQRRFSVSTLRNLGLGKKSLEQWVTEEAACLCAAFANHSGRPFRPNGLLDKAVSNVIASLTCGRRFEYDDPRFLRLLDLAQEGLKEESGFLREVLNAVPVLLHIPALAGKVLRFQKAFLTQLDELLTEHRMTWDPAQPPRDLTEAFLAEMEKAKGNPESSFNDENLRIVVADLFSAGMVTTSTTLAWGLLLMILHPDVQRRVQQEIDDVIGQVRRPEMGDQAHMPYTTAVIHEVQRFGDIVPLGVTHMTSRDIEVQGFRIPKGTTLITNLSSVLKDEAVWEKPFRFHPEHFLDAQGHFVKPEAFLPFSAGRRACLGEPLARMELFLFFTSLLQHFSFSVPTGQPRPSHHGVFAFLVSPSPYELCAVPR
From the text: as §1, §2, §3

| Kobs 2B6 [1] | Kobs 2B6 ([1]; listed as 223-02) | Single concentration Kobs assay (risk bin) 2B6 [1] | Kobs 2C8 [2] | Single concentration Kobs assay (risk bin) 2C8 [2] | inhibition at 30 min [2] | Kobs 2D6 [3] | Single concentration Kobs assay (risk bin) 2D6 [3] | inhibition at 30 min [3] | SMILES |
| --- | --- | --- | --- | --- | --- | --- | --- | --- | --- |
| 0.0147 min⁻¹ | 0.01472 min⁻¹ | weak positive inhibitor | 0.004276 min⁻¹ | negative inhibitor | < 50% | 1.479e-10 min⁻¹ | negative inhibitor | < 50% | COc1cc(-c2nnn(-c3cc(OC)c(O)c(OC)c3)n2)cc(OC)c1O [223-2] |
| 0.02027 min⁻¹ |  | weak positive inhibitor | 0.02943 min⁻¹ | positive inhibitor | < 50% | 0.01109 min⁻¹ | weak positive inhibitor | < 50% | Cc1cc(-c2nnn(-c3cc(C)c(O)c(C)c3)n2)cc(C)c1O [223-3] |
| 0.01121 min⁻¹ |  | weak positive inhibitor | 0.01585 min⁻¹ | weak positive inhibitor | < 50% | 0.009064 min⁻¹ | negative inhibitor | < 50% | Oc1ccc(-c2nnn(-c3ccc(O)cc3)n2)cc1 [223-10] |
